Like-named read-outs stand apart in the source and are kept apart here.
Columns and labels:
Format in all cases: cell-based
ATF4 = ATF4 protein level in PC3 cells by western blot, 24 hr; details: Actin control; for fold induction at 10 µM: Homo sapiens, PC-3, PC3, 24 h, read-out: Relative ATF4 protein at 10 μM (fold change, PC3 24 h)
Procedure: (§1) Table 2. Biological data of selected compounds. For IC50 determination. PC3 and PC12 cells were treated with increasing concentrations of the indicated compounds for 72 hrs and cell viability assessed using CellTitreGlo Assay (Promega). For MYC and ATF4 protein level determination. PC3 cells were treated with the indicated compounds for 24 hr sand cell lysates processed for western blot with MYC and ATF4 antibodies using Actin as a control. Quantification analyses were performed by Biorad ChemiDoc Imager and Bio-Rad Image Lab software.

MYC = target: T1, MYC (Homo sapiens, UniProt P01106); test: MYC protein level in PC3 cells by western blot, 24 hr; details: Actin control; for remaining activity at 10 µM: read-out: Relative MYC protein at 10 μM (%, PC3 24 h)
T1 construct: endogenous in cells; host or cells: PC3 cells
Procedure: as §1

PC3 cells = test: PC3 cell viability, CellTitreGlo Assay, 72 hrs; details: Homo sapiens, PC-3
Procedure: as §1

T1 sequence (P01106 whole entry): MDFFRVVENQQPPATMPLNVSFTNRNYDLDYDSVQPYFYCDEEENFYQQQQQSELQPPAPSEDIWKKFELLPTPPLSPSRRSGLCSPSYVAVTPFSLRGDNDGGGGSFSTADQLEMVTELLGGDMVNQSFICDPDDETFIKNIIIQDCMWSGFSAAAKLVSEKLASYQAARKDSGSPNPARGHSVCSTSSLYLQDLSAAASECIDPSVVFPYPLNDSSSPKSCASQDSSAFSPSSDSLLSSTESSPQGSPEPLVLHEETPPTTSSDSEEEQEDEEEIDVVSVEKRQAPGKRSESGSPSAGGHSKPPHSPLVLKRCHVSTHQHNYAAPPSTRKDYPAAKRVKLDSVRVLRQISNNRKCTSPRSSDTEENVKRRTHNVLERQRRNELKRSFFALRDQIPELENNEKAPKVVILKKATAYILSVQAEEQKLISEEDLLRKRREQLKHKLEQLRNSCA

Row | Compound | Relative MYC protein at 10 μM (%, PC3 24 h) (MYC) | remaining activity at 10 µM (MYC; PC-3, 24 h, PC3, 24 h) | IC50 (PC3 cells) | Relative ATF4 protein at 10 μM (fold change, PC3 24 h) (ATF4) | fold induction at 10 µM (ATF4) | remaining activity at 10 µM (MYC; PC-3, PC3, 24 h)
1 | Cn1nncc1-c1ccc(OCc2ccc(Cl)cc2)c(-c2ccc(Cl)c(C(F)(F)F)c2)c1O [NUCC-0226656] | 103% |  |  | 1.5 fold change |  | 
2 | Cc1ncsc1-c1ccc(CNC(=O)[C@@H]2C[C@@H](O)CN2C(=O)[C@@H](NCCOCCOCCCCCOc2ccc(-c3cc(C(F)(F)F)nn3C)c(O)c2-c2ccc(Cl)c(C(F)(F)F)c2)C(C)(C)C)cc1 [NUCC-0226265] |  | 115% |  |  | 2.2 | 
3 | CC(C)Cc1ccc(CN(C(=O)c2ccc(Cl)c(C(F)(F)F)c2)c2ccc(-c3cc(C(F)(F)F)nn3C)c(O)c2)cc1 [NUCC-0226280] |  | 45.2% |  |  | 10.3 | 
4 | CC(C)Cc1ccc([C@@H](C)Oc2ccc(-c3cc(C(F)(F)F)nn3C)c(O)c2-c2ccc(Cl)c(C(F)(F)F)c2)cc1 [NUCC-0226437] |  | 50.7% | 5.4 µM |  | 9 | 
5 | Cn1nc(C(F)(F)F)cc1-c1ccc(OCc2ccc(Cl)cc2)c(-c2ccc(F)c(F)c2)c1O [NUCC-0226504] |  | 32.5% | 7.3 µM |  | 5.2 | 
6 | Cn1nc(C(F)(F)F)cc1-c1ccc(N(CCCOCCC(=O)NCCCCCCOc2cccc3c2C(=O)N(C2CCC(=O)NC2=O)C3=O)C(=O)c2ccc(Cl)c(C(F)(F)F)c2)cc1O (centres unmarked) [NUCC-0226229] |  | 56.4% | 15.6 µM |  | 16.4 | 
7 | CC(=O)N[C@@H](C(=O)N1C[C@@H](O)C[C@@H]1C(=O)NCc1ccc(-c2scnc2C)cc1OCCOCCNC(=O)CCOCCCN(C(=O)c1ccc(Cl)c(C(F)(F)F)c1)c1ccc(-c2cc(C(F)(F)F)nn2C)c(O)c1)C(C)(C)C [NUCC-0226290] |  | 27.4% | 5.1 µM |  | 2.9 | 
8 | Cc1ncsc1-c1ccc(CNC(=O)[C@@H]2C[C@@H](O)CN2C(=O)[C@@H](NCCOCCNC(=O)CCOCCCOc2ccc(-c3cc(C(F)(F)F)nn3C)c(O)c2-c2ccc(Cl)c(C(F)(F)F)c2)C(C)(C)C)cc1 [NUCC-0226303] |  | 24% | 10.9 µM |  | 1.6 | 
9 | COc1ccc(-c2c(Cl)c(C(F)(F)F)nn2C)c(O)c1-c1ccc(Cl)c(C(F)(F)F)c1 [NUCC-0226501] |  | 59.4% | 4.6 µM |  | 9.3 | 
10 | CC(=O)Oc1c(-c2cc(C(F)(F)F)nn2C)ccc(OCc2ccccc2)c1-c1ccc(Cl)c(C(F)(F)F)c1 [NUCC-0226258] |  | 56.4% |  |  | 5.8 | 
11 | Cn1nncc1-c1ccc(OCc2ccc(Cl)cc2)c(-c2ccc(Cl)c(C(F)(F)F)c2)c1O [NUCC-0226659] |  | 90.3% |  |  | 1.5 | 
12 | Cn1nc(C(F)(F)F)cc1-c1ccc(OCc2ccccc2)c(-c2ccc(Cl)c(C(F)(F)F)c2)c1O [NUCC-0226260] |  |  |  |  | 4.6 | 41.5%
13 | Cn1nc(C(F)(F)F)cc1-c1ccc(O)c(-c2ccc(Cl)c(C(F)(F)F)c2)c1O [NUCC-0226259] |  | 52% |  |  | 3.3 | 
14 | Cn1nc(C(F)(F)F)cc1-c1ccc(OCc2ccc(OCCOCCNC(=O)COc3cccc4c3C(=O)N(C3CCC(=O)NC3=O)C4=O)cc2)c(-c2ccc(Cl)c(C(F)(F)F)c2)c1O (centres unmarked) [NUCC-0226302] |  | 79.4% |  |  | 2 | 
15 | Cc1ncsc1-c1ccc(CNC(=O)[C@@H]2C[C@@H](O)CN2C(=O)[C@@H](NC(=O)C2(F)CC2)C(C)(C)C)c(OCCOCCOCCOCCCCCOc2ccc(-c3cc(C(F)(F)F)nn3C)c(O)c2-c2ccc(Cl)c(C(F)(F)F)c2)c1 [NUCC-0226220] |  | 90.1% |  |  |  | 
16 | O=c1oc2c(-c3ccc(Cl)c(C(F)(F)F)c3)c(O)ccc2c2cc(C(F)(F)F)nn12 [NUCC-0226261] |  | 93.1% |  |  | 4.4 | 
17 | Cc1ncsc1-c1ccc(CNC(=O)[C@@H]2C[C@@H](O)CN2C(=O)[C@@H](NC(=O)C2(F)CC2)C(C)(C)C)c(OCCOCCOCCOCCOCCCCCOc2ccc(-c3cc(C(F)(F)F)nn3C)c(O)c2-c2ccc(Cl)c(C(F)(F)F)c2)c1 [NUCC-0226221] |  | 85.9% |  |  |  | 
18 | COCCOCCCN(C(=O)c1ccc(C(F)(F)F)c(Cl)c1)c1ccc(-c2cc(C(F)(F)F)nn2C)c(O)c1 [NUCC-0226268] |  | 52.9% |  |  | 5.4 | 

Second part, led by results:

Row | Relative MYC protein at 10 μM (%, PC3 24 h) (MYC) | remaining activity at 10 µM (MYC; PC-3, 24 h, PC3, 24 h) | IC50 (PC3 cells) | Compound | Relative ATF4 protein at 10 μM (fold change, PC3 24 h) (ATF4) | fold induction at 10 µM (ATF4) | remaining activity at 10 µM (MYC; PC-3, PC3, 24 h)
19 |  | 170% |  | Cn1nc(C(F)(F)F)cc1-c1ccc(OCCCOCCC(=O)NCCOCCOCCNc2cccc3c2C(=O)N(C2CCC(=O)NC2=O)C3=O)c(-c2ccc(Cl)c(C(F)(F)F)c2)c1O (centres unmarked) [NUCC-0226304] |  | 4.6 | 
20 |  | 97.6% |  | Cc1ncsc1-c1ccc(CNC(=O)[C@@H]2C[C@@H](O)CN2C(=O)[C@@H](NC(=O)C2(F)CC2)C(C)(C)C)c(OCCOCCOc2ccc(COc3ccc(-c4cc(C(F)(F)F)nn4C)c(O)c3-c3ccc(Cl)c(C(F)(F)F)c3)cc2)c1 [NUCC-0226277] |  | 1.6 | 
21 |  | 113% |  | CC(=O)Oc1c(-c2cc(C(F)(F)F)nn2C)ccc(OCc2ccc(OCCOCCOS(=O)(=O)c3ccc(C)cc3)cc2)c1-c1ccc(Cl)c(C(F)(F)F)c1 [NUCC-0226263] |  | 0.7 | 
22 |  | 52.4% | 8.4 µM | CC(C)Cc1ccc(COc2ccc(-c3cc(C(F)(F)F)nn3C)c(O)c2-c2ccc(Cl)c(C(F)(F)F)c2)cc1 [NUCC-0226305] |  | 2.9 | 
23 |  | 46.4% | 4.6 µM | COCCCN(C(=O)c1ccc(C(F)(F)F)c(Cl)c1)c1ccc(-c2cc(C(F)(F)F)nn2C)c(O)c1 [NUCC-0226267] |  | 8 | 
24 |  | 85.1% |  | Cn1nc(C(F)(F)F)cc1-c1ccc(OCc2ccc(OCCOCCOc3cccc4c3C(=O)N(C3CCC(=O)NC3=O)C4=O)cc2)c(-c2ccc(Cl)c(C(F)(F)F)c2)c1O (centres unmarked) [NUCC-0226279] |  | 2.1 | 
25 |  | 91.5% | 18.6 µM | COc1ccc(C2=N[C@@H](c3ccc(Cl)cc3)[C@@H](c3ccc(Cl)cc3)N2C(=O)N2CCN(CCCCCOc3ccc(-c4cc(C(F)(F)F)nn4C)c(O)c3-c3ccc(Cl)c(C(F)(F)F)c3)C(=O)C2)c(OC(C)C)c1 [NUCC-0226223] |  | 5.5 | 
26 |  | 56.6% | 7.51 µM | CC(C)n1nc(C(F)(F)F)cc1-c1ccc(OCc2ccc(Cl)cc2)c(-c2ccc(Cl)c(C(F)(F)F)c2)c1O [NUCC-0226657] |  | 7.7 | 
27 |  | 91.8% |  | Cc1ncsc1-c1ccc(CNC(=O)[C@@H]2C[C@@H](O)CC2C(=O)[C@@H](NCCOCCOCCOCCCCCOc2ccc(-c3cc(C(F)(F)F)nn3C)c(O)c2-c2ccc(Cl)c(C(F)(F)F)c2)C(C)(C)C)cc1 (some centres unmarked) [NUCC-0226266] |  | 1.7 | 
28 |  | 93% | 24.8 µM | Cn1nc(C(F)(F)F)cc1-c1ccc(OCc2ccc(Cl)cc2)c(-c2ccc(Cl)cc2F)c1O [NUCC-0226497] |  | 5.9 | 
29 |  | 30.3% | 3.4 µM | Cc1ccc([C@@H](C)Oc2ccc(-c3cc(C(F)(F)F)nn3C)c(O)c2-c2ccc(Cl)c(C(F)(F)F)c2)cc1 [NUCC-0226436] |  | 11.8 | 
30 |  | 90.6% |  | Cn1nc(C(F)(F)F)cc1-c1ccc(OCCCCCNC(=O)[C@H](CCCN=C(NC(=O)OC(C)(C)C)NC(=O)OC(C)(C)C)NC(=O)OC(C)(C)C)c(-c2ccc(Cl)c(C(F)(F)F)c2)c1O [NUCC-0226219] |  |  | 
31 |  | 102% |  | Cc1ncsc1-c1ccc(CNC(=O)[C@@H]2C[C@@H](O)CN2C(=O)[C@@H](NC(=O)C2(F)CC2)C(C)(C)C)c(OCCOCCOCCCCCOc2ccc(-c3cc(C(F)(F)F)nn3C)c(O)c2-c2ccc(Cl)c(C(F)(F)F)c2)c1 [NUCC-0226264] |  | 1.3 | 
32 |  | 129% |  | Cn1nc(C(F)(F)F)cc1-c1ccc(OCc2ccc(Cl)cc2)c(-c2ccc(F)cc2)c1O [NUCC-0226503] |  | 3 | 
33 |  | 105% |  | Cn1nc(C(F)(F)F)cc1-c1ccc(N(CCCOCCC(=O)NCCCCNC(=O)COc2cccc3c2C(=O)N(C2CCC(=O)NC2=O)C3=O)C(=O)c2ccc(Cl)c(C(F)(F)F)c2)cc1O (centres unmarked) [NUCC-0226230] |  | 1.9 | 
34 |  | 70% |  | Cc1ncsc1-c1ccc(CNC(=O)[C@@H]2C[C@@H](O)CN2C(=O)[C@@H](NCCOCCOc2ccc(COc3ccc(-c4cc(C(F)(F)F)nn4C)c(O)c3-c3ccc(Cl)c(C(F)(F)F)c3)cc2)C(C)(C)C)cc1 [NUCC-0226276] |  | 0.4 | 

Reference: patent US20260035360A1, “INHIBITORS OF MYC AND USES THEREOF” (Northwestern University, priority 2022, published 2026)
